Data published in patent publication US4888287A, “Rapid differentiation of fungi from bacteria using polyene antibiotics” (Eastman Kodak Company, priority 1986, dated 1989).

What was measured:
E. coli = test: Inhibition of RIND IX reduction by E. coli (gram-negative) in solution (Example 1, Table II); assay type: cell-based, Escherichia coli (ATCC 25922)
Experimental: (§1) gram-negative microorganism Escherichia coli (ATCC 25922), gram-positive microorganism Staphylococcus aureus (ATCC 25923), and Candida albicans yeast cells (ATCC 14053), brain heart infusion broth (BHI) and Sabaroud's dextrose broth (SAB) from Difco Laboratories (Detroit, Michigan, U.S.A.), and Aspergillus flavus (ATCC 20047), a mold from American Type Culture Collection (Rockville, Maryland, U.S.A.).
(§2) E. coli and S. aureus were grown overnight in BHI broth at 37° C. C. albicans and A. flavus were grown overnight at 25° C. in SAB broth with agitation. […]
(§3) Test solutions were prepared by adding in order: 1.2 ml of HEPES buffer, 50 μl glucose solution, 1.5 ml of RIND IX dispersion, 100 μl of antibiotic solution, 100 μl of cell suspension and 25 μl of ETA solution. […] Optical density readings (OD) were measured at 635 nm at 0 minutes and after incubation at 37° C. for 30 minutes for test and Control solutions, and the change in density (ΔOD) was determined. Table II below lists the results, expressed as corrected percent inhibition of the reduction of the RIND compound. The corrected percent inhibition is calculated by dividing the difference between the ΔOD obtained from the Control without antibiotic and the ΔOD of the test solution, by ΔOD of the Control without antibiotic. All readings were corrected by subtracting readings of the appropriate background control. […]

C. albicans = test: Inhibition of RIND IX reduction by C. albicans (yeast) in solution (Example 1, Table II); assay type: cell-based, Candida albicans (ATCC 14053)
Experimental: E. coli and S. aureus were grown overnight in BHI broth at 37° C. C. albicans and A. flavus were grown overnight at 25° C. in SAB broth with agitation. The cells were harvested by centrifugation, washed and resuspended in 0.05 molar N-2-hydroxyethylpiperazine-N'-2-ethanesulfonic acid (HEPES) buffer (pH 7.8).
Dispersions containing RIND compounds were prepared by dissolving, for example, RIND VII from Table I above in N,N-dimethylformamide (DMF) at 16 mg compound per ml of solvent. An aliquot (250 μl) of the resulting solution was added to 500 μl of TRITON X-100 surfactant. This mixture was then added dropwise with stirring to 25 ml of 0.05 molar HEPES buffer.
The following materials were used in this example: stock solutions of RIND IX compound dispersion prepared as described above, glucose (10% in water), trimethyl-1,4-benzoquinone ETA (1.5 mg/ml methanol), and the antibiotics (25 mg/ml in dimethyl sulfoxide, except that filipin was 12.5 mg/ml of solvent). Bacteria and yeast were grown as described above. The approximate final cell concentrations in the assay mixture were 4.2×10^8 cells/ml of E. coli, 7.1×10^8 cells/ml of S. aureus, and 7×10^5 of C. albicans.
Test solutions were prepared by adding in order: 1.2 ml of HEPES buffer, 50 μl glucose solution, 1.5 ml of RIND IX dispersion, 100 μl of antibiotic solution, 100 μl of cell suspension and 25 μl of ETA solution. Cell control solutions contained all reagents except antibiotics. Background controls consisted of both buffer and solution controls. The buffer control contained all reagents except antibiotics and cells. The solution control contained all reagents except cells. Optical density readings (OD) were measured at 635 nm at 0 minutes and after incubation at 37° C. for 30 minutes for test and Control solutions, and the change in density (ΔOD) was determined. […] The corrected percent inhibition is calculated by dividing the difference between the ΔOD obtained from the Control without antibiotic and the ΔOD of the test solution, by ΔOD of the Control without antibiotic. All readings were corrected by subtracting readings of the appropriate background control.
Solutions containing 2.9 ml HEPES, 50 μl of the antibiotic solution, and 100 μl cell solution were incubated at 37° C. for 30 minutes, centrifuged for 10 minutes and decanted. The resulting pellet was then treated with 1.4 ml HEPES, 50 μl glucose solution, 1.5 ml RIND IX dispersion and 25 μl ETA solution, mixed well and the optical densities recorded as described above in Method 1. The corrected percent inhibition data was calculated as described in Method 1 above.

S. aureus = test: Inhibition of RIND IX reduction by S. aureus (gram-positive) in solution (Example 1, Table II); assay type: cell-based, Staphylococcus aureus (ATCC 25923); details: Method 1, 635 nm, 37° C., 30 min
Experimental: as §1, §2, §3

[1] = Method 1, 635 nm, 37° C., 30 min
[2] = Method 2, preincubation for 1 hour, 635 nm

| Compound | Corrected % Inhibition (E. coli; [1]) | Corrected % Inhibition (C. albicans; [1]) | Corrected % Inhibition (S. aureus) | Corrected % Inhibition (C. albicans; [2]) | Corrected % Inhibition (E. coli; [2]) |
| --- | --- | --- | --- | --- | --- |
| C[C@@H]1[C@H](O)[C@@H](C)/C=C/C=C/C=C/C=C/C=C/C=C/C=C/[C@H](O[C@@H]2O[C@H](C)[C@@H](O)[C@H](N)[C@@H]2O)C[C@@H]2O[C@](O)(C[C@@H](O)C[C@@H](O)[C@H](O)CC[C@@H](O)C[C@@H](O)CC(=O)O[C@H]1C)C[C@H](O)[C@H]2C(=O)O [Amphotericin B, amphotericin B] | 15.1% |  |  |  |  |
| C[C@@H]1C/C=C/C=C/C=C/C=C/[C@H](O[C@@H]2O[C@H](C)[C@@H](O)[C@H](N)[C@@H]2O)C[C@@H]2O[C@](O)(C[C@@H](O)C[C@H]3O[C@@H]3/C=C/C(=O)O1)C[C@H](O)[C@H]2C(=O)O [Natamycin, natamycin] |  | 77.9% | 0.3% |  |  |
| candicidin |  |  |  | 62.8% | 12.5% |
| C[C@@H]1[C@H](O)[C@@H](C)/C=C/C=C/CC/C=C/C=C/C=C/C=C/C(O[C@H]2O[C@H](C)[C@@H](O)[C@H](N)[C@@H]2O)CC2O[C@](O)(CC(O)C(O)CCC(O)CC(O)CC(O)CC(=O)O[C@H]1C)CC(O)C2C(=O)O (stereo partly shown) [Nystatin, nystatin] |  | 76.2% | 9.8% |  |  |
